Results reported in patent US12115161B2, “Prophylactic and/or therapeutic agent for inflammatory diseases which contains pyrrolopyrimidine compound as active ingredient” (KEIO UNIVERSITY, priority 2018, dated 2024).

Experiments:
MRL/lpr mice = assay: Tissue lesion (lymphocytic infiltration, HE staining) in MRL/lpr mice (Example 9); format: in vivo; conditions: 0.04, 0.2, 1 mg/kg for 16 weeks
Protocol: Present Example was performed simultaneously with Example 6 using MRL/lpr mice. Except for the following exceptions, present Example was performed by the same materials and method as Example 6 above.
After administration in the 16th week, 25-week-old mice were dissected and tissues (lacrimal glands, submandibular glands, and kidneys) were removed. After the removed tissues were rapidly frozen and embedded using O.C.T. compound (Sakura Finetek Japan Co., Ltd.), the frozen tissues were thin sectioned with a cryostat (LEICA CM 1920) and applied on glass slides. After the sections on the glass slides were dried, the tissues were stained by hematoxylin-eosin staining to be observed with a microscope. The hematoxylin-eosin staining was performed in the following procedure: • 1) fixation and washing with an ethanol-formalin-acetic acid fixative; • 2) adding New Hematoxylin solution Type G (Muto Pure Chemicals Co., Ltd.), followed by washing; • 3) adding New Eosin solution Type A (Muto Pure Chemicals Co., Ltd.); • 4) adding 80% ethanol; • 5) adding xylene; and • 6) mounted with Marinol (Muto Pure Chemicals Co., Ltd.) for observation.

NZB/WF1 mice = assay: Urine protein in NZB/WF1 mice (Example 8); format: in vivo
Protocol: Present Example was performed simultaneously with Example 7 using NZB/WF1 mice. Except for the following exceptions, present Example was performed by the same materials and method as Example 7 above.
The urine was collected over time (0 w, 4 w, 7 w, 12 w, 16 w, and 18 w) to evaluate the protein content […] in the urine using urine protein test strips. It is known that SLE patients are prone to develop lupus nephritis and a higher concentration of protein is contained in the urine of incident patients than the urine of normal healthy individuals.
The level of the protein content in the mouse urine was numerically expressed using Albustix (Ames urine protein test strips, produced by Siemens Healthcare K.K.) as urine protein test strips based on the following criteria. • negative: 0 • ±: 0.5 • +: 1 • 2+: 2 • 3+: 3

[1] = test system: peripheral blood monocytes and B cells from Sjögren syndrome patients; assay: IgG production in coculture of BAFF-stimulated peripheral blood monocytes and B cells (Example 4); format: cell-based, human
Protocol: Monocytes were isolated from Sjögren syndrome patient peripheral blood using CD14 microbeads, and B cells were isolated from the peripheral blood using CD19 microbeads. Using Transwell® culture plates, 2×10^5 monocytes per well were seeded in the upper plate and 1×10^5 B cells in the lower plate to be cultured in the presence of 2 μg/mL recombinant human BAFF (same as Example 2) and Compound A (1 μM and 10 μM) using a 10% FBS/RPMI 1640 culture medium in a 5% CO2 environment at 37° C. for four days (coculture of the peripheral blood monocytes and the B cells via a membrane). Four days later, the supernatant was removed and the culture supernatant was collected to determine the IgG content in the culture supernatant by ELISA. As controls, experiments in the case of not adding Compound A and the case of adding neither Compound A nor BAFF were also performed. Moreover, for comparison with the effects of Compound A, experiments using BIK-13 instead of Compound A were also performed.

[2] = test system: peripheral blood mononuclear cells (PBMC); assay: IgG production by B cell-stimulation culture using peripheral blood mononuclear cells (Example 5); format: cell-based, human
Protocol: Peripheral blood mononuclear cells were isolated from normal healthy human peripheral blood by density gradient centrifugation using Ficoll. In the presence of 5 μg/mL anti-human IgM antibody, 1 μg/mL anti-human CD40 antibody, 30 ng/mL recombinant human IL-21, 30 ng/mL recombinant human BAFF, and Compound A (0.4 μM, 2 μM, and 10 μM), 2×10^5 peripheral blood mononuclear cells were cultured using a 10% FBS/RPMI 1640 culture medium in a 5% CO2 environment at 37° C. for seven days. The cells were cultured in 96-well round-bottom culture plates in a scale of 200 μL per well. Seven days later, the supernatant was removed and the culture supernatant was collected to determine the IgG content in the culture supernatant by ELISA. As controls, experiments in the case of not adding Compound A and the case of adding neither Compound A nor BAFF were also performed. Moreover, for comparison with the effects of Compound A, experiments using BIK-13 instead of Compound A were also performed.

[3] = test system: human peripheral blood monocytes; assay: IL-6 production inhibitory effect of BAFF from human peripheral blood monocytes (Example 3); format: cell-based
Protocol: Monocytes were isolated from normal healthy human peripheral blood using CD14-microbeads. In the presence of 2 μg/mL recombinant human BAFF (same as Example 2) and Compound A (2 μM and 10 μM) (entire culture scale of 24-well culture plates at 2 mL/well), 5×10^5 of the isolated monocytes were cultured using a 10% FBS/RPMI 1640 culture medium in a 5% CO2 environment at 37° C. for four days. Four days later, the supernatant was removed to determine the IL-6 content in the culture supernatant by IL-6 specific ELISA. For comparison, experiments using BIK-13 instead of Compound A were also performed.

Compound: Cc1c(C)n(Cc2ccccc2)c2ncnc(OC3CCN(CC(=O)NCC4CC4)CC3)c12 [Compound A, 2-[4-{(7-benzyl-5,6-dimethyl-7H-pyrrolo[2,3-d]pyrimidin-4-yl)oxy}piperidin-1-yl]-N(cyclopropylmethyl)acetamide]
- lymphocytic infiltration areas in kidney tissues compared with saline (MRL/lpr mice): reduced
- lymphocytic infiltration areas in lacrimal gland tissues compared with saline (MRL/lpr mice): clearly reduced
- lymphocytic infiltration areas in submandibular gland tissues compared with saline (MRL/lpr mice): reduced
- protein content in the urine compared with saline (NZB/WF1 mice; 0.2 and 1 mg/kg, 12 w or later, urine protein test strips): tendency of decrease
- inhibitory effect on the protein content in the urine compared with saline (NZB/WF1 mice; 12th week (1 mg/kg) and 18th week (0.2 mg/kg and 1 mg/kg)): significant (respectively, p<0.05) inhibitory effects
- IgG antibody production inhibitory effect compared with the control (B+mono+BAFF) ([1]; 1 μM and 10 μM with 2 μg/mL human BAFF, 4 days): significant (p<0.01 or p<0.001) IgG antibody production inhibitory effects
- cancellation of the IgG antibody production enhancement by BAFF ([1]; 10 μM, compared with adding neither compound nor BAFF): completely cancelled and further the IgG antibody production was inhibited below the basal level
- inhibitory effect on IgG antibody production, times stronger than BIK-13 ([1]; coculture system of Example 4): approximately 10 times
- IgG antibody production inhibitory effect compared with the control ([2]; 0.4 μM, 2 μM and 10 μM, anti-IgM, anti-CD40, IL-21 and BAFF stimuli, 7 days): significant (respectively, p<0.05, p<0.01, and p<0.001) IgG antibody production inhibitory effects
- cancellation of the IgG antibody production enhancement by BAFF ([2]; 10 μM, compared with adding none): almost completely cancelled
- inhibitory effect on IgG antibody production, times stronger than BIK-13 ([2]; PBMC system of Example 5): approximately 25 times
- IL-6 production inhibitory effect compared with the control ([3]; 2 μM and 10 μM with 2 μg/mL human BAFF, 4 days): significant (p<0.001) IL-6 production inhibitory effects
- relative amount of IL-6 production ([3]; 2 μM, control = 100%): 66.4±0.283%
- IL-6 production inhibitory effect, times stronger than BIK-13 ([3]; monocytes of normal healthy individuals): at least 5 times
